# Test results reported in patent US20040192759A1, “Use of nefiracetam for treating neurodegeneration” (priority 2004, published 2004).
# Entries after “also recorded” stand apart in the source; their conditions may differ.
# Columns and labels:
# post-stroke patients = assay: controlled clinical trial against placebo in post-stroke patients, improvement rating by duration from stroke; assay type: in vivo, human
# Experimental: The activity of nefiracetam to improve ADL in post-stroke patients has been discovered during a controlled clinical trial against placebo. The compound has been administered orally (450 mg/day, three times daily) to 32 post-stroke patients within six months after the event whilst, concurrently, 27 patients received placebo. The two groups of patients were followed during at least 8 weeks and followed up at the end of week 4 and at the end of week 8 on a symptom scale measuring Activities of Daily Living. […] Among the above 59 patients, 19 received nefiracetam and 10 received placebo within three months after stroke. […] The difference was significant (p=0.035, χ^2 test).
# Further, the action of nefiracetam on the patient who had been treated with nefiracetam early after stroke or later was evaluated.
# [1] = tested on: hippocampal rat embrio neurons; assay: neurite outgrowth in primary cultures of hippocampal neurons; assay type: cell-based
# [2] = tested on: cortical rat embrio neurons; assay: neurite outgrowth in primary cultures of cortical neurons; assay type: cell-based; settings: 0.1, 1, 10 and 100 micromoles/l
# [3] = tested on: rats with cerebral embolism; assay: spatial learning and retention (watermaze) of rats with cerebral embolism; assay type: in vivo, male Wistar rats
# Experimental: This assumption is confirmed by the effect of nefiracetam on spatial learning and retention in rats with cerebral embolism, treated for 9 days with nefiracetam or vehicle, starting within 24 hours of embolization.
# In male Wistar rats weighing 190-220 g a total of 700 microspheres (48 μm in diameter) were injected into the right common carotid artery of each animal, whereby a quasi-immediate embolism occurs. The embolized animals were randomly divided into 2 groups, each of 13 animals with same neurological deficit, designated as “Control” (embolism plus Vehicle), or “Nefiracetam” (embolism plus nefiracetam 10 mg/kg/day). In addition, a group of 13 “Normal (Sham)” non-embolized animals were used. The administration of nefiracetam or of its vehicle started within the same day of embolization and treatment lasted 9 days. Seven days after embolization, the embolized rats were submitted to a watermaze test, said watermaze being adapted from the Morris water task. The time taken to find the platform (latency) was determined. […] The experiment was carried out in two different sessions. In the first session, at the seventh day embolized rats were submitted to the spatial learning test performed three trials per day for three days (from day 7 to day 9). In the second session, one week after the last day of spatial learning test […], a retention test was performed whereby each rat was given three consecutive trials to learn and remember the location of the platform.
# [4] = tested on: patients after a stroke (cerebral infarction or cerebral hemorrhage); settings: Ohtomo et al., global results; cited from earlier work
# stroke patients = settings: Hirata et al.; cited from earlier work
# [5] = Overall (all durations from stroke)
# [6] = duration from stroke <12 months
# [7] = duration from stroke ≧12 months
smiles,measurement,setting,value
"Cc1cccc(C)c1NC(=O)CN1CCCC1=O [nefiracetam, N-(2,6-dimethylphenyl)-2-(2-oxo-1-pyrrolidinyl)acetamide]",improvement on symptom scale measuring Activities of Daily Living (in words),"post-stroke patients; 450 mg/day orally, within six months after stroke, 32 patients, weeks 4 and 8",moderate or remarkable improvement
same,"Emotional Disturbance, Improvement Rate (Percent Patients Remarkably or Moderately Improved)",post-stroke patients; [5],Overall 22.6%
same,"Global Improvement Rating, Improvement Rate (Percent Patients Remarkably or Moderately Improved)",post-stroke patients; [5],Overall 32.3%
same,"Intellectual Dysfunction, Improvement Rate (Percent Patients Remarkably or Moderately Improved)",post-stroke patients; [5],Overall 11.9%
same,"Psychiatric Symptoms, Improvement Rate (Percent Patients Remarkably or Moderately Improved)",post-stroke patients; [5],Overall 30.8%
same,"Reduced Spontaneity, Improvement Rate (Percent Patients Remarkably or Moderately Improved)",post-stroke patients; [5],Overall 23.4%
same,"ADL Improvement, Improvement Rate (Percent Patients Remarkably or Moderately Improved)",post-stroke patients; duration from stroke <3 months,41.7%
same,"ADL Improvement, Improvement Rate (patients improved/patients)",post-stroke patients; duration from stroke <3 months,5/12
same,"Emotional Disturbance, Improvement Rate (Percent Patients Remarkably or Moderately Improved)",post-stroke patients; duration from stroke <3 months,70.6%
same,"Emotional Disturbance, Improvement Rate (patients improved/patients)",post-stroke patients; duration from stroke <3 months,12/17
same,"Global Improvement Rating, Improvement Rate (Percent Patients Remarkably or Moderately Improved)",post-stroke patients; duration from stroke <3 months,68.4%
same,"Global Improvement Rating, Improvement Rate (patients improved/patients)",post-stroke patients; duration from stroke <3 months,13/19
same,"Intellectual Dysfunction, Improvement Rate (Percent Patients Remarkably or Moderately Improved)",post-stroke patients; duration from stroke <3 months,43.8%
same,"Intellectual Dysfunction, Improvement Rate (patients improved/patients)",post-stroke patients; duration from stroke <3 months,7/16
same,"Psychiatric Symptoms, Improvement Rate (Percent Patients Remarkably or Moderately Improved)",post-stroke patients; duration from stroke <3 months,68.4%
same,"Psychiatric Symptoms, Improvement Rate (patients improved/patients)",post-stroke patients; duration from stroke <3 months,13/19
same,"Reduced Spontaneity, Improvement Rate (Percent Patients Remarkably or Moderately Improved)",post-stroke patients; duration from stroke <3 months,61.1%
same,"Reduced Spontaneity, Improvement Rate (patients improved/patients)",post-stroke patients; duration from stroke <3 months,11/18
same,"ADL Improvement, Improvement Rate (Percent Patients Remarkably or Moderately Improved)",post-stroke patients; duration from stroke <6 months,21.7%
same,"ADL Improvement, Improvement Rate (patients improved/patients)",post-stroke patients; duration from stroke <6 months,5/23
same,"Emotional Disturbance, Improvement Rate (Percent Patients Remarkably or Moderately Improved)",post-stroke patients; duration from stroke <6 months,48.3%
same,"Emotional Disturbance, Improvement Rate (patients improved/patients)",post-stroke patients; duration from stroke <6 months,14/29
same,"Global Improvement Rating, Improvement Rate (Percent Patients Remarkably or Moderately Improved)",post-stroke patients; duration from stroke <6 months,50.0%
same,"Global Improvement Rating, Improvement Rate (patients improved/patients)",post-stroke patients; duration from stroke <6 months,16/32
same,"Intellectual Dysfunction, Improvement Rate (Percent Patients Remarkably or Moderately Improved)",post-stroke patients; duration from stroke <6 months,29.6%
same,"Intellectual Dysfunction, Improvement Rate (patients improved/patients)",post-stroke patients; duration from stroke <6 months,8/27
same,"Psychiatric Symptoms, Improvement Rate (Percent Patients Remarkably or Moderately Improved)",post-stroke patients; duration from stroke <6 months,50.0%
same,"Psychiatric Symptoms, Improvement Rate (patients improved/patients)",post-stroke patients; duration from stroke <6 months,16/32
same,"Reduced Spontaneity, Improvement Rate (Percent Patients Remarkably or Moderately Improved)",post-stroke patients; duration from stroke <6 months,46.7%
same,"Reduced Spontaneity, Improvement Rate (patients improved/patients)",post-stroke patients; duration from stroke <6 months,14/30
same,"ADL Improvement, Improvement Rate (Percent Patients Remarkably or Moderately Improved)",post-stroke patients; [6],14.3%
same,"ADL Improvement, Improvement Rate (patients improved/patients)",post-stroke patients; [6],5/35
same,"Emotional Disturbance, Improvement Rate (Percent Patients Remarkably or Moderately Improved)",post-stroke patients; [6],48.8%
same,"Emotional Disturbance, Improvement Rate (patients improved/patients)",post-stroke patients; [6],21/43
same,"Global Improvement Rating, Improvement Rate (Percent Patients Remarkably or Moderately Improved)",post-stroke patients; [6],50.0%
same,"Global Improvement Rating, Improvement Rate (patients improved/patients)",post-stroke patients; [6],24/48
same,"Intellectual Dysfunction, Improvement Rate (Percent Patients Remarkably or Moderately Improved)",post-stroke patients; [6],23.1%
same,"Intellectual Dysfunction, Improvement Rate (patients improved/patients)",post-stroke patients; [6],9/39
same,"Psychiatric Symptoms, Improvement Rate (Percent Patients Remarkably or Moderately Improved)",post-stroke patients; [6],50.0%
same,"Psychiatric Symptoms, Improvement Rate (patients improved/patients)",post-stroke patients; [6],24/48
same,"Reduced Spontaneity, Improvement Rate (Percent Patients Remarkably or Moderately Improved)",post-stroke patients; [6],46.7%
same,"Reduced Spontaneity, Improvement Rate (patients improved/patients)",post-stroke patients; [6],21/45
same,"ADL Improvement, Improvement Rate (Percent Patients Remarkably or Moderately Improved)",post-stroke patients; duration from stroke ≧3 months,1.2%
same,"ADL Improvement, Improvement Rate (patients improved/patients)",post-stroke patients; duration from stroke ≧3 months,1/81
same,"ADL Improvement, Improvement Rate (Percent Patients Remarkably or Moderately Improved)",post-stroke patients; duration from stroke ≧6 months,1.4%
same,"ADL Improvement, Improvement Rate (patients improved/patients)",post-stroke patients; duration from stroke ≧6 months,1/70
same,"Emotional Disturbance, Improvement Rate (Percent Patients Remarkably or Moderately Improved)",post-stroke patients; duration from stroke ≧6 months,14.7%
same,"Emotional Disturbance, Improvement Rate (patients improved/patients)",post-stroke patients; duration from stroke ≧6 months,14/95
same,"Global Improvement Rating, Improvement Rate (Percent Patients Remarkably or Moderately Improved)",post-stroke patients; duration from stroke ≧6 months,26.5%
same,"Global Improvement Rating, Improvement Rate (patients improved/patients)",post-stroke patients; duration from stroke ≧6 months,26/98
same,"Intellectual Dysfunction, Improvement Rate (Percent Patients Remarkably or Moderately Improved)",post-stroke patients; duration from stroke ≧6 months,6.1%
same,"Intellectual Dysfunction, Improvement Rate (patients improved/patients)",post-stroke patients; duration from stroke ≧6 months,5/82
same,"Psychiatric Symptoms, Improvement Rate (Percent Patients Remarkably or Moderately Improved)",post-stroke patients; duration from stroke ≧6 months,24.5%
same,"Psychiatric Symptoms, Improvement Rate (patients improved/patients)",post-stroke patients; duration from stroke ≧6 months,24/98
same,"Reduced Spontaneity, Improvement Rate (Percent Patients Remarkably or Moderately Improved)",post-stroke patients; duration from stroke ≧6 months,16.0%
same,"Reduced Spontaneity, Improvement Rate (patients improved/patients)",post-stroke patients; duration from stroke ≧6 months,15/94
same,"ADL Improvement, Improvement Rate (Percent Patients Remarkably or Moderately Improved)",post-stroke patients; [7],1.7%
same,"ADL Improvement, Improvement Rate (patients improved/patients)",post-stroke patients; [7],1/58
same,"Emotional Disturbance, Improvement Rate (Percent Patients Remarkably or Moderately Improved)",post-stroke patients; [7],8.6%
same,"Emotional Disturbance, Improvement Rate (patients improved/patients)",post-stroke patients; [7],7/81
same,"Global Improvement Rating, Improvement Rate (Percent Patients Remarkably or Moderately Improved)",post-stroke patients; [7],22.0%
same,"Global Improvement Rating, Improvement Rate (patients improved/patients)",post-stroke patients; [7],18/82
same,"Intellectual Dysfunction, Improvement Rate (Percent Patients Remarkably or Moderately Improved)",post-stroke patients; [7],5.7%
same,"Intellectual Dysfunction, Improvement Rate (patients improved/patients)",post-stroke patients; [7],4/70
same,"Psychiatric Symptoms, Improvement Rate (Percent Patients Remarkably or Moderately Improved)",post-stroke patients; [7],19.5%
same,"Psychiatric Symptoms, Improvement Rate (patients improved/patients)",post-stroke patients; [7],16/82
same,"Reduced Spontaneity, Improvement Rate (Percent Patients Remarkably or Moderately Improved)",post-stroke patients; [7],10.1%
same,"Reduced Spontaneity, Improvement Rate (patients improved/patients)",post-stroke patients; [7],8/79
same,incontinence of urines,post-stroke patients; early treatment after stroke,tends to improve
same,neurological signs,post-stroke patients; early treatment after stroke,tends to improve
same,neurotrophic effect (neurite outgrowth),"[1]; 0.1, 1, 10 and 100 micromoles/l",significantly increasing neurite outgrowth
same,neurite outgrowth effect in combination with bFGF,[1]; with bFGF,potentiated by bFGF
same,neurotrophic effect (neurite outgrowth),[2],significantly increasing neurite outgrowth
same,"Number of rats which failed to find the platform within 180 Sec., Spatial learning test","[3]; Day 7, 10 mg/kg/day, of 13 rats",8
same,"Latency to reach the platform, Spatial learning test","[3]; Day 7 after embolization, 10 mg/kg/day for 9 days, n 13",147.6 ± 14.1 s
same,"Number of rats which failed to find the platform within 180 Sec., Spatial learning test","[3]; Day 8, 10 mg/kg/day, of 13 rats",2
same,"Latency to reach the platform, Spatial learning test","[3]; Day 8 after embolization, 10 mg/kg/day for 9 days, n 13",83.7 ± 17.4 s
same,"Number of rats which failed to find the platform within 180 Sec., Spatial learning test","[3]; Day 9, 10 mg/kg/day, of 13 rats",2
same,"Latency to reach the platform, Spatial learning test","[3]; Day 9 after embolization, 10 mg/kg/day for 9 days, n 13",93.1 ± 16.2 s
same,"Number of rats which failed to find the platform within 180 Sec., Retention test","[3]; Day 17, 10 mg/kg/day, of 13 rats",2
same,"Latency to reach the platform, Retention test","[3]; Day 17 after embolization (after washout), 10 mg/kg/day for 9 days, n 13",72.2 ± 17.0 s
same,effect in retention test vs vehicle (in words),"[3]; day 17 after embolization, after washout",maintained even after washout; also recorded: remakable difference
same,learning ability in place-learning watermaze task vs vehicle (in words),[3]; days 7 to 9 after embolization,clear difference between nefiracetam and vehicle-treated animals
same,"activities of daily living, nefiracetam vs placebo",[4],no significant difference between the two groups
same,psychiatric symptoms,[4],improves the psychiatric symptoms
same,improvement of mental function tests,stroke patients,not significant
